The subject of data set [1] is Jurkat. Briefly: Cytotoxicity against human Jurkat cells assessed as cell growth inhibition measured after 72 hrs by MTS assay. The data set is classed as functional, cell-based. For orientation: Formazan colour is commonly taken as a measure of viable cells.
Data set [2] in a line: Cytotoxicity against human IM-9 cells assessed as cell growth inhibition. The data set is classed as toxicity, cell-based.
Data set [3] has as its system Jurkat. Briefly: Cytotoxicity against human Jurkat cells assessed as cell growth inhibition. The data set is classed as functional, cell-based.
The next data set deals with Daudi. Briefly: Cytotoxicity against human Daudi cells assessed as cell growth inhibition. The data set is classed as functional, cell-based.
The subject of the next data set is MCF7. Briefly: Cytotoxicity against human MCF7 cells assessed as cell growth inhibition. The data set is classed as functional, cell-based.
Another data set deals with DU-145. Briefly: Cytotoxicity against human DU-145 cells assessed as cell growth inhibition. The data set is classed as functional, cell-based.
A short description of data set [4]: Cytotoxicity against mouse LL2 cells assessed as cell growth inhibition. Particulars: Lewis lung carcinoma. The data set is classed as functional, cell-based.
The nature of data set [5]: Cytotoxicity against human MHOC-59 cell assessed as cell growth inhibition. The data set is classed as functional, cell-based.
The subject of a further data set is AN3-CA. Briefly: Cytotoxicity against human AN3-CA cells assessed as cell growth inhibition. The data set is classed as functional, cell-based.
The next data set relates to HEC-1-A. Briefly: Cytotoxicity against human HEC-1-A cells assessed as cell growth inhibition. The data set is classed as functional, cell-based.
A further data set deals with K562. Briefly: cells. The settings on record: Homo sapiens.
Data set [6] deals with 1-acyl-sn-glycerol-3-phosphate acyltransferase beta (Homo sapiens, UniProt O15120). Kind of data set: Inhibition of LPAAT-beta (unknown origin) expressed in Xenopus laevis oocytes incubated for 3 mins. The data set is classed as cell-based, Oocyte.
Sequence of 1-acyl-sn-glycerol-3-phosphate acyltransferase beta (O15120 whole entry): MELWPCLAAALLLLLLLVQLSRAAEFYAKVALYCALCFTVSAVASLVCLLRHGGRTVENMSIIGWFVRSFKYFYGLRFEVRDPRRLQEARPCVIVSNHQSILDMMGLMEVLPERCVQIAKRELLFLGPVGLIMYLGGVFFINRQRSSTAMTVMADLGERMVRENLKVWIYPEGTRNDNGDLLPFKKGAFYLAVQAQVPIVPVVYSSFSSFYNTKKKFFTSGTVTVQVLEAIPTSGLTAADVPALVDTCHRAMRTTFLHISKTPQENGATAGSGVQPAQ
The subject of another data set is HeLa. Briefly: Cytotoxicity against human HeLa cells assessed as cell growth inhibition incubated for 96 hrs by WST-8 assay. The data set is classed as functional, cell-based.
Data set [7] is described as follows: Cytotoxicity against human HCO cell assessed as cell growth inhibition incubated for 96 hrs by WST-8 assay. The data set is classed as functional, cell-based.
The next data set concerns HEK293. Briefly: Cytotoxicity against HEK293 cells assessed as cell growth inhibition incubated for 96 hrs by WST-8 assay. The data set is classed as functional, cell-based. Particulars: Homo sapiens, HEK293, 96 h.
The test system of another data set is MEF. Briefly: Cytotoxicity against mouse MEF cells assessed as cell growth inhibition incubated for 96 hrs by WST-8 assay. The data set is classed as functional, cell-based.
Another data set has as its system SK-OV-3. Kind of data set: Cytotoxicity against human SK-OV-3 cells assessed as cell growth inhibition incubated for 96 hrs by WST-8 assay. Particulars: SK-OV-3, 96 h. The data set is classed as functional, cell-based.
The target in the next data set is NADPH oxidase 1 (Homo sapiens, UniProt Q9Y5S8). Briefly: Inhibition of human NOX1.
Sequence of NADPH oxidase 1 (Q9Y5S8 whole entry): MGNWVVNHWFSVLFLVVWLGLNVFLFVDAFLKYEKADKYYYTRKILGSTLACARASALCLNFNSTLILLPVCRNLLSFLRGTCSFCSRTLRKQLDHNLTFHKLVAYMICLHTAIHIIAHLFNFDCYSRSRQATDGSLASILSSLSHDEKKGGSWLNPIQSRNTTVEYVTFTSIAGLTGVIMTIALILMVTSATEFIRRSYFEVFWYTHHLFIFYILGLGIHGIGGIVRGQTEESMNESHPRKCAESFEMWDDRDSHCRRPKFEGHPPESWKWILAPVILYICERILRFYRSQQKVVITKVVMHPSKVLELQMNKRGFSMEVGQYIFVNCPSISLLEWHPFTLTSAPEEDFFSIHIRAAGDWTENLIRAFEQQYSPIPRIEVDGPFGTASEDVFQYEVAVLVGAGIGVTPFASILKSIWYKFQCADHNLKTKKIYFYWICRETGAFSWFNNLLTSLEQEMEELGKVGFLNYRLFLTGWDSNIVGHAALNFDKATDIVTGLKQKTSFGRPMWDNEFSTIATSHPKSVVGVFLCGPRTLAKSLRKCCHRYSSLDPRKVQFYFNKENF
For the next data set, the target named is NADPH oxidase 2 (Homo sapiens, UniProt P04839). Kind of data set: Inhibition of human NOX2.
Sequence of NADPH oxidase 2 (P04839 whole entry): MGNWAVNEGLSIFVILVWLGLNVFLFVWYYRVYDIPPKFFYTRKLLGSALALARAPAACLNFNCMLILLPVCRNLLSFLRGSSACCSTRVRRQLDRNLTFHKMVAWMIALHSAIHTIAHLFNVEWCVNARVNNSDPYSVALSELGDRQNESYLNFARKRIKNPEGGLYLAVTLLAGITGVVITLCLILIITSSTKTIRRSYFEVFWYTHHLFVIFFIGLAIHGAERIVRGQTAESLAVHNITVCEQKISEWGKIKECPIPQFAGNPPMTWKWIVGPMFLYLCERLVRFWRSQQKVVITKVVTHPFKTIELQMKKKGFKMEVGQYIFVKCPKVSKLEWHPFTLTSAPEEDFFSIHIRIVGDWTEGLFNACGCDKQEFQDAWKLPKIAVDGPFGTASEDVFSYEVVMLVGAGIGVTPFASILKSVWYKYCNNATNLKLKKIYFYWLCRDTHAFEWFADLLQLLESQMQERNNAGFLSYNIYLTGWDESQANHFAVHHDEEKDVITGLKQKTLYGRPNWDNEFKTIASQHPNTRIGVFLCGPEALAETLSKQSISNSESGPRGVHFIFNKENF
For another data set, the target named is NADPH oxidase 3 (Homo sapiens, UniProt Q9HBY0). Briefly: Inhibition of human NOX3.
Sequence of NADPH oxidase 3 (Q9HBY0 whole entry): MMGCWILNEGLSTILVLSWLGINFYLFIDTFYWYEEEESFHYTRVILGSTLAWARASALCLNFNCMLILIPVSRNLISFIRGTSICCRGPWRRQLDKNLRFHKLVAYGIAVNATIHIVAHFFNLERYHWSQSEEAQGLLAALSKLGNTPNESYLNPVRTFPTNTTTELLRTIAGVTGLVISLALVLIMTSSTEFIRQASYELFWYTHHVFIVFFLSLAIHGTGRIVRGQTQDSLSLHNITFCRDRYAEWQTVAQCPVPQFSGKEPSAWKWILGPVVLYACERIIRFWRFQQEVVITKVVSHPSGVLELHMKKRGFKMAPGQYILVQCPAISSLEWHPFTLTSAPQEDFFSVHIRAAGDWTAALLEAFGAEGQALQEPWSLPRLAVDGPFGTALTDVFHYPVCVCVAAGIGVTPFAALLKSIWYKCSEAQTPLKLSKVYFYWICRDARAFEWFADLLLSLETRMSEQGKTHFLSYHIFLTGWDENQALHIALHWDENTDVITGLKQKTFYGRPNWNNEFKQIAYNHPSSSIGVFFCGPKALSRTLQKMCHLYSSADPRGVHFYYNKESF
Data set [8] concerns Human immunodeficiency virus 1. Kind of data set: Antiviral activity against wild type HIV1 IIIB assessed as viral growth inhibition measured after 5 days by MTT assay. The data set is classed as functional, organism-based. Particulars: Human immunodeficiency virus 1, IIIB, 120 h.
In data set [9] the test system is Human immunodeficiency virus 1. Briefly: Antiviral activity against NNRTI resistant HIV1 harboring Leu100IIe mutant infected in human MT4 cells assessed as reduction in virus-induced cytopathic effect measured after 5 days by MTT assay. The data set is classed as functional, organism-based. The settings on record: Human immunodeficiency virus 1, MT4, 120 h. Background: Protection from cytopathic effect is a common read-out in antiviral testing.

The subject of data set [10] is Human immunodeficiency virus 1. Briefly: Antiviral activity against NNRTI resistant HIV1 harboring Lys103Asn mutant infected in human MT4 cells assessed as reduction in virus-induced cytopathic effect measured after 5 days by MTT assay. The data set is classed as functional, organism-based. The settings on record: Human immunodeficiency virus 1, MT4, 120 h.
The test system of data set [11] is Human immunodeficiency virus 1. Briefly: Antiviral activity against NNRTI resistant HIV1 harboring Val106Ala mutant infected in human MT4 cells assessed as reduction in virus-induced cytopathic effect measured after 5 days by MTT assay. The data set is classed as functional, organism-based. Particulars: Human immunodeficiency virus 1, MT4, 120 h.
Data set [12] relates to Human immunodeficiency virus 1. Briefly: Antiviral activity against NNRTI resistant HIV1 harboring Tyr181Cys mutant infected in human MT4 cells assessed as reduction in virus-induced cytopathic effect measured after 5 days by MTT assay. The data set is classed as functional, organism-based. Particulars: Human immunodeficiency virus 1, MT4, 120 h.
Data set [13] relates to Human immunodeficiency virus 1. Briefly: Antiviral activity against NNRTI resistant HIV1 harboring Tyr188Leu mutant infected in human MT4 cells assessed as reduction in virus-induced cytopathic effect measured after 5 days by MTT assay. The data set is classed as functional, organism-based. Particulars: Human immunodeficiency virus 1, MT4, 120 h.
The test system of data set [14] is Human immunodeficiency virus 1. Kind of data set: Antiviral activity against NNRTI resistant HIV1 harboring Gly190Ala mutant infected in human MT4 cells assessed as reduction in virus-induced cytopathic effect measured after 5 days by MTT assay. The data set is classed as functional, organism-based. The settings on record: Human immunodeficiency virus 1, MT4, 120 h.

In data set [15] the target is T1, Free fatty acid receptor 1 (Homo sapiens, UniProt O14842). Briefly: Positive allosteric modulation of GPR40 (unknown origin) at 100 uM assessed as maximum efficacy relative to control. The settings on record: filed as positive allosteric modulator.
T1 sequence (O14842 whole entry): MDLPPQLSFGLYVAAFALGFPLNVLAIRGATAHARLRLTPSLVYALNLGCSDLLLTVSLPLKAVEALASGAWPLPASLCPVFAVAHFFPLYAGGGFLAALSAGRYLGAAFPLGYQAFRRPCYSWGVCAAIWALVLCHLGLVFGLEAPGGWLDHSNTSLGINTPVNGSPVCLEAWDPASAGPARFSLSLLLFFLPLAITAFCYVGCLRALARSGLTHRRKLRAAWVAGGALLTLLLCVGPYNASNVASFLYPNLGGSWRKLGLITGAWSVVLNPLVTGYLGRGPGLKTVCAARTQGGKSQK
Data set [16] concerns the target T1, Free fatty acid receptor 1. Briefly: Positive allosteric modulation of GPR40 (unknown origin).
The target in data set [17] is T2, Equilibrative nucleoside transporter 1 (Homo sapiens, UniProt Q99808).
T2 sequence (Q99808 whole entry): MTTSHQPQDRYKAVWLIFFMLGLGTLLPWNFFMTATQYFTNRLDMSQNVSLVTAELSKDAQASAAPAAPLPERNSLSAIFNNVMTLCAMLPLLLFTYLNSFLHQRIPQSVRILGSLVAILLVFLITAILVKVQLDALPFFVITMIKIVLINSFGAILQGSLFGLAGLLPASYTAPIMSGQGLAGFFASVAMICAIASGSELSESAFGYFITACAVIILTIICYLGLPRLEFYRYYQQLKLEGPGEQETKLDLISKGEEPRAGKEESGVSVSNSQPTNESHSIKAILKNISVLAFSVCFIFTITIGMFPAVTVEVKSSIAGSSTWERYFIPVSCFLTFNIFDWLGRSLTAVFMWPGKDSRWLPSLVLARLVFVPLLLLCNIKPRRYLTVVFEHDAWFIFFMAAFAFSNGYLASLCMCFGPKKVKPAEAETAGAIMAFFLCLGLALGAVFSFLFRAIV
Kind of data set: Inhibition of human ENT1 transfected in nucleoside transporter-deficient pig PK-15 cells assessed as inhibition of [3H]-uridine uptake by liquid scintillation counter analysis. The data set is classed as cell-based.

For data set [18], the target named is T3, Equilibrative nucleoside transporter 2 (Homo sapiens, UniProt Q14542).
T3 sequence (Q14542 whole entry): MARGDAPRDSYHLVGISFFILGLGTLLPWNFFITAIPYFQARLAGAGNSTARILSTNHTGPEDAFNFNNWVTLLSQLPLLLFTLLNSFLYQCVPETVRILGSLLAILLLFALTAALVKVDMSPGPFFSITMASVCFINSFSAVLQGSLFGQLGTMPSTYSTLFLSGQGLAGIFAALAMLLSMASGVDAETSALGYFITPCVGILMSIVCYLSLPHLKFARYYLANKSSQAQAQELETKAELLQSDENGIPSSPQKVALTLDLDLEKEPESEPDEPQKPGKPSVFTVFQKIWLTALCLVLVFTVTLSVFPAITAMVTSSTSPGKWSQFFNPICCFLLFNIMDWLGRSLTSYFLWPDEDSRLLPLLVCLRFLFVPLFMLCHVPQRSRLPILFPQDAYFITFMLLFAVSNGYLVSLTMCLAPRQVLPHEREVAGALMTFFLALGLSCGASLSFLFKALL
Kind of data set: Inhibition of human ENT2 transfected in nucleoside transporter-deficient pig PK-15 cells assessed as inhibition of [3H]-uridine uptake by liquid scintillation counter analysis. The data set is classed as cell-based.

Data set [19] has as its target 5-hydroxytryptamine receptor 6 (Homo sapiens, UniProt P50406). Kind of data set: Displacement of [3H]-LSD from human 5-HT6R expressed in HEK293 cells by radioligand binding assay. The data set is classed as cell-based. Background: In a radioligand displacement assay an active substance lowers the binding of a labelled ligand.

Molecules are shown by their SMILES. Bounds are passed on as bounds.

Sequence of 5-hydroxytryptamine receptor 6 (P50406 whole entry): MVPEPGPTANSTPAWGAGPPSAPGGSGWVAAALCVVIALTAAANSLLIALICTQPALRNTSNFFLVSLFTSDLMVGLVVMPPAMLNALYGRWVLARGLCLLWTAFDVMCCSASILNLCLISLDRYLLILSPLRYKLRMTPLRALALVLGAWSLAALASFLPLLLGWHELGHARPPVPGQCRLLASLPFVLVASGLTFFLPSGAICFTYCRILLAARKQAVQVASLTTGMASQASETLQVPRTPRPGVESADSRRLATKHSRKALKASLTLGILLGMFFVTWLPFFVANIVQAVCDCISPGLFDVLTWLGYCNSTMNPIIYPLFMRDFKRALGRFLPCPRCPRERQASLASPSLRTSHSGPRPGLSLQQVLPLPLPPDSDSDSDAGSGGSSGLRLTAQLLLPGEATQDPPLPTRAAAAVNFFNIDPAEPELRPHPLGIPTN
Description for K562: Cytotoxicity against human K562 cells assessed as cell growth inhibition

As to `Nc1nc(-c2ccccc2)nc(N2CCc3ccccc3C2)n1`, the IC50 (commonly the concentration needed to halve the response being measured) in the data set on Jurkat [1] stood at 1950 nM.
`Cc1ccc(Cl)cc1-c1nc(N)nc(Nc2ccc(Br)cc2)n1`: the IC50 in [2] was 50 nM; in the data set with Jurkat [3] it was 50 nM; in the data set on Daudi, 70 nM; with MCF7 it was 90 nM; in the data set on DU-145, 70 nM; in data set [4], 75 nM. In addition, the IC50 in data set [5] stood at 104 nM; in the data set on AN3-CA, 37 nM; in the data set with HEC-1-A, 100 nM; with K562, 50 nM.
As to `CCc1ccc(Nc2nc(N)nc(-c3oc4ccccc4c3C)n2)cc1`, the IC50 in [6] is 15 nM; in the data set with HeLa it was 111 nM; in data set [7], 63 nM; in the data set on HEK293, 25 nM; in the data set on MEF, 48 nM; with SK-OV-3 it was 79 nM.
As for `COc1cccc(N2CCN(Cc3nc(N)nc(Nc4ccc(C)c(C)c4)n3)CC2)c1`, the half-maximal inhibitory concentration (IC50) against NADPH oxidase 1 is more than 10 µM; on NADPH oxidase 2, 1250 nM; against NADPH oxidase 3, 1250 nM.
As to `CCc1c(-c2nc(N)nc(Nc3ccc(C)cc3)n2)oc2ccccc12`, the IC50 in [6] came to 8.4 nM; with HeLa, 140 nM; in [7], 102 nM; in the data set with HEK293 it was 51 nM; in the data set on MEF, 62 nM; in the data set with SK-OV-3, 179 nM.
In the case of `N#Cc1ccc(Nc2nc(N)nc(Cc3c(Cl)ccc4[nH]ccc34)n2)cc1`, the IC50 in data set [8] came out at 3 nM; in [9] it was 1000 nM; in data set [10], 63 nM; in data set [11], 63 nM; in [12], 250 nM; in [13], 1000 nM. Further, the IC50 in [14] stood at 3 nM.
With `Cc1ccccc1Nc1nc(N)nc(COc2ccc3c(C)cc(=O)oc3c2)n1`, the Emax (in general, the size of the effect at its maximum, as opposed to the concentration needed) in data set [15] came to 134%. For the same molecule, the EC50 (in general, the concentration that produces a half-maximal response) in data set [16] was 776 nM.
Regarding `COc1ccc(Nc2nc(N)nc(CN3CCN(c4ccccc4F)CC3)n2)cc1`, the IC50 in data set [17] stood at 590 nM; in [18], 77.1 µM.
`CC(Oc1ccccc1Cl)c1nc(N)nc(N2CCN(C)CC2)n1` (stereo not drawn): the Ki (usually the dissociation constant of the complex between target and ligand, obtained from inhibition or displacement) in data set [19] is 28 nM.

For the origin of these results see ChEMBL document CHEMBL5214932, “A closer look at N2,6-substituted 1,3,5-triazine-2,4-diamines: Advances in synthesis and biological activities” (Eur J Med Chem, 2022).
